Source: patent publication US20250120989A1, “BRIDGED TRICYCLIC CARBAMOYLPYRIDONE COMPOUNDS AND USES THEREOF” (priority 2023, published 2025)
≈ marks a conversion by molar mass, not a printed value. Like-named read-outs stand apart in the source and are kept apart here.

Tests used:
HIV-1 (IIIB) = experiment: microbe, parasite or virus in culture; assay type: cell-based; conditions: read-out: MT4 EC50
in vitro = conditions: human; for CC50 at 5 days: uninfected MT-4 cells
physchem = conditions: 23 °C, thermodynamic from solid; for solubility thermodynamic at 24 h: FaSSIF
[1] = Human immunodeficiency virus 1, MT4, 120 h, HIV-1 (IIIB) replication in MT-4 cells, 5 days, Cell Titer Glo

Row | Compound | EC50 (HIV-1 (IIIB); [1]) [µM] | CC50 at 5 days (in vitro) [µM] | further results
1 | CC1=NO[C@@]2(CC[C@H](C)N3C[C@H]2n2cc(C(=O)NCc4ccc(F)cc4F)c(=O)c(OCOC(=O)O[C@H](C)COP(=O)(O)O)c2C3=O)C1 [Compound 18, (((3′S,5S,7′R)-10′-((2,4-difluorobenzyl)carbamoyl)-3,3′-dimethyl-1′,11′-dioxo-1′,4′,5′,11′-tetrahydro-3′H,4H,7′H-spiro[isoxazole-5,6′-[2,7]methanopyrido[1,2-a][1,4]diazonin]-12′-yl)oxy)methyl ((R)-1-(phosphonooxy)propan-2-yl) carbonate] | 0.00227 | 12.1 | –
2 | CC1=NO[C@@]2(CC[C@H](C)N3C[C@H]2n2cc(C(=O)NCc4ccc(F)cc4F)c(=O)c(OCOC(=O)OCCCCOP(=O)(O)O)c2C3=O)C1 [Compound 34, (((3′S,5S,7′R)-10′-((2,4-difluorobenzyl)carbamoyl)-3,3′-dimethyl-1′,11′-dioxo-1′,4′,5′,11′-tetrahydro-3′H,4H,7′H-spiro[isoxazole-5,6′-[2,7]methanopyrido[1,2-a][1,4]diazonin]-12′-yl)oxy)methyl (4-(phosphonooxy)butyl) carbonate] | – | – | solubility thermodynamic (physchem; fassif): 4.89 mg/mL (≈ 6.86 mM); CC50 (in vitro): 50 µM
3 | CC1=NO[C@@]2(CC[C@H](C)N3C[C@H]2n2cc(C(=O)NCc4ccc(F)cc4F)c(=O)c(OCOC(=O)CCCCOP(=O)(O)O)c2C3=O)C1 [Compound 20, (((3′S,5S,7′R)-10′-((2,4-difluorobenzyl)carbamoyl)-3,3′-dimethyl-1′,11′-dioxo-1′,4′,5′,11′-tetrahydro-3′H,4H,7′H-spiro[isoxazole-5,6′-[2,7]methanopyrido[1,2-a][1,4]diazonin]-12′-yl)oxy)methyl 5-(phosphonooxy)pentanoate] | 0.00237 | 20.4 | –
4 | CC1=NO[C@@]2(CC[C@H](C)N3C[C@H]2n2cc(C(=O)NCc4ccc(F)cc4F)c(=O)c(OC(=O)OCCOP(=O)(O)O)c2C3=O)C1 [Compound 6, (3′S,5S,7′R)-10′-((2,4-difluorobenzyl)carbamoyl)-3,3′-dimethyl-1′,11′-dioxo-1′,4′,5′,11′-tetrahydro-3′H,4H,7′H-spiro[isoxazole-5,6′-[2,7]methanopyrido[1,2-a][1,4]diazonin]-12′-yl (2-(phosphonooxy)ethyl) carbonate] | – | – | EC50 (HIV-1 (IIIB); Human immunodeficiency virus 1, IIIB, MT4, 120 h): 0.00209 µM; CC50 (in vitro): 15.2 µM
5 | CC1=NO[C@@]2(CC[C@H](C)N3C[C@H]2n2cc(C(=O)NCc4ccc(F)cc4F)c(=O)c(OC(=O)C(C)(C)CCN(CC(=O)O)C(=O)OCOP(=O)(O)O)c2C3=O)C1 [Compound 2, N-(4-(((3′S,5S,7′R)-10′-((2,4-difluorobenzyl)carbamoyl)-3,3′-dimethyl-1′,11′-dioxo-1′,4′,5′,11′-tetrahydro-3′H,4H,7′H-spiro[isoxazole-5,6′-[2,7]methanopyrido[1,2-a][1,4]diazonin]-12′-yl)oxy)-3,3-dimethyl-4-oxobutyl)-N-(((phosphonooxy)methoxy)carbonyl)glycine] | 0.00137 | 12.3 | –
6 | COC1=NO[C@@]2(CC[C@H](C)N3C[C@H]2n2cc(C(=O)NCc4ccc(F)cc4F)c(=O)c(OCOC(=O)OC[C@@H](C)COP(=O)(O)O)c2C3=O)C1 [Compound 71, (((3′S,5S,7′R)-10′-((2,4-difluorobenzyl)carbamoyl)-3-methoxy-3′-methyl-1′,11′-dioxo-1′,4′,5′,11′-tetrahydro-3′H,4H,7′H-spiro[isoxazole-5,6′-[2,7]methanopyrido[1,2-a][1,4]diazonin]-12′-yl)oxy)methyl ((R)-2-methyl-3-(phosphonooxy)propyl) carbonate] | 0.00504 | 21.3 | –
7 | CC1=NO[C@@]2(CC[C@H](C)N3C[C@H]2n2cc(C(=O)NCc4ccc(F)cc4F)c(=O)c(OCOC(=O)N(CCOP(=O)(O)O)CC(=O)O)c2C3=O)C1 [Compound 46, N-(((((3′S,5S,7′R)-10′-((2,4-difluorobenzyl)carbamoyl)-3,3′-dimethyl-1′,11′-dioxo-1′,4′,5′,11′-tetrahydro-3′H,4H,7′H-spiro[isoxazole-5,6′-[2,7]methanopyrido[1,2-a][1,4]diazonin]-12′-yl)oxy)methoxy)carbonyl)-N-(2-(phosphonooxy)ethyl)glycine] | – | 50 | solubility thermodynamic at 24 h (physchem): 4.99 mg/mL (≈ 6.72 mM)
8 | CC1=NO[C@@]2(CC[C@H](C)N3C[C@H]2n2cc(C(=O)NCc4ccc(F)cc4F)c(=O)c(OCOC(=O)OC(C)(C)C(C)OP(=O)(O)O)c2C3=O)C1 (stereo partly drawn) [Compound 55, (((3′S,5S,7′R)-10′-((2,4-difluorobenzyl)carbamoyl)-3,3′-dimethyl-1′,11′-dioxo-1′,4′,5′,11′-tetrahydro-3′H,4H,7′H-spiro[isoxazole-5,6′-[2,7]methanopyrido[1,2-a][1,4]diazonin]-12′-yl)oxy)methyl (2-methyl-3-(phosphonooxy)butan-2-yl) carbonate] | – | – | solubility thermodynamic at 24 h (physchem): 4.6 mg/mL (≈ 6.33 mM)
9 | CC1=NO[C@@]2(CC[C@H](C)N3C[C@H]2n2cc(C(=O)NCc4ccc(F)cc4F)c(=O)c(OCOC(=O)C4(CCN(CC(=O)O)C(=O)OCOP(=O)(O)O)CC4)c2C3=O)C1 [Compound 44, N-(2-(1-(((((3′S,5S,7′R)-10′-((2,4-difluorobenzyl)carbamoyl)-3,3′-dimethyl-1′,11′-dioxo-1′,4′,5′,11′-tetrahydro-3′H,4H,7′H-spiro[isoxazole-5,6′-[2,7]methanopyrido[1,2-a][1,4]diazonin]-12′-yl)oxy)methoxy)carbonyl)cyclopropyl)ethyl)-N-(((phosphonooxy)methoxy)carbonyl)glycine] | 0.00141 | 11.1 | –
10 | COC1=NO[C@@]2(CC[C@H](C)N3C[C@H]2n2cc(C(=O)NCc4ccc(F)cc4F)c(=O)c(OCOC(=O)OC[C@@H](C)OP(=O)(O)O)c2C3=O)C1 [Compound 53, (((3′S,5S,7′R)-10′-((2,4-difluorobenzyl)carbamoyl)-3-methoxy-3′-methyl-1′,11′-dioxo-1′,4′,5′,11′-tetrahydro-3′H,4H,7′H-spiro[isoxazole-5,6′-[2,7]methanopyrido[1,2-a][1,4]diazonin]-12′-yl)oxy)methyl ((R)-2-(phosphonooxy)propyl) carbonate] | 0.00196 | 15.2 | –
11 | COC1=NO[C@@]2(CC[C@H](C)N3C[C@H]2n2cc(C(=O)NCc4ccc(F)cc4F)c(=O)c(OCOP(=O)(O)O)c2C3=O)C1 [Compound 1, (((3′S,5S,7′R)-10′-((2,4-difluorobenzyl)carbamoyl)-3-methoxy-3′-methyl-1′,11′-dioxo-1′,4′,5′,11′-tetrahydro-3′H,4H,7′H-spiro[isoxazole-5,6′-[2,7]methanopyrido[1,2-a][1,4]diazonin]-12′-yl)oxy)methyl dihydrogen phosphate] | 0.00177 | 15.4 | –
12 | CC1=NO[C@@]2(CC[C@H](C)N3C[C@H]2n2cc(C(=O)NCc4ccc(F)cc4F)c(=O)c(OC(C)OC(=O)OCCOP(=O)(O)O)c2C3=O)C1 (stereo partly drawn) [Compound 5, 1-(((3′S,5S,7′R)-10′-((2,4-difluorobenzyl)carbamoyl)-3,3′-dimethyl-1′,11′-dioxo-1′,4′,5′,11′-tetrahydro-3′H,4H,7′H-spiro[isoxazole-5,6′-[2,7]methanopyrido[1,2-a][1,4]diazonin]-12′-yl)oxy)ethyl (2-(phosphonooxy)ethyl) carbonate] | 0.00196 | 10.6 | –
13 | CC1=NO[C@@]2(CC[C@H](C)N3C[C@H]2n2cc(C(=O)NCc4ccc(F)cc4F)c(=O)c(OCOC(=O)O[C@@H](C)C[C@H](C)OP(=O)(O)O)c2C3=O)C1 [Compound 30, (((3′S,5S,7′R)-10′-((2,4-difluorobenzyl)carbamoyl)-3,3′-dimethyl-1′,11′-dioxo-1′,4′,5′,11′-tetrahydro-3′H,4H,7′H-spiro[isoxazole-5,6′-[2,7]methanopyrido[1,2-a][1,4]diazonin]-12′-yl)oxy)methyl ((2S,4S)-4-(phosphonooxy)pentan-2-yl) carbonate] | 0.00272 | 10.3 | –
14 | CC1=NO[C@@]2(CC[C@H](C)N3C[C@H]2n2cc(C(=O)NCc4ccc(F)cc4F)c(=O)c(OCOC(=O)OC[C@@H](C)COP(=O)(O)O)c2C3=O)C1 [Compound 70, (((3′S,5S,7′R)-10′-((2,4-difluorobenzyl)carbamoyl)-3,3′-dimethyl-1′,11′-dioxo-1′,4′,5′,11′-tetrahydro-3′H,4H,7′H-spiro[isoxazole-5,6′-[2,7]methanopyrido[1,2-a][1,4]diazonin]-12′-yl)oxy)methyl ((R)-2-methyl-3-(phosphonooxy)propyl) carbonate] | 0.00286 | 15.3 | –
15 | CC1=NO[C@@]2(CC[C@H](C)N3C[C@H]2n2cc(C(=O)NCc4ccc(F)cc4F)c(=O)c(OCOC(=O)OC(C)C(C)(C)OP(=O)(O)O)c2C3=O)C1 (stereo partly drawn) [Compound 56, (((3′S,5S,7′R)-10′-((2,4-difluorobenzyl)carbamoyl)-3,3′-dimethyl-1′,11′-dioxo-1′,4′,5′,11′-tetrahydro-3′H,4H,7′H-spiro[isoxazole-5,6′-[2,7]methanopyrido[1,2-a][1,4]diazonin]-12′-yl)oxy)methyl (3-methyl-3-(phosphonooxy)butan-2-yl) carbonate] | – | – | solubility thermodynamic at 24 h (physchem): 4.25 mg/mL (≈ 5.84 mM)
16 | COC1=NO[C@@]2(CC[C@H](C)N3C[C@H]2n2cc(C(=O)NCc4ccc(F)cc4F)c(=O)c(OCOC(=O)OC[C@@H](OP(=O)(O)O)C(C)C)c2C3=O)C1 [Compound 82, (((3′S,5S,7′R)-10′-((2,4-difluorobenzyl)carbamoyl)-3-methoxy-3′-methyl-1′,11′-dioxo-1′,4′,5′,11′-tetrahydro-3′H,4H,7′H-spiro[isoxazole-5,6′-[2,7]methanopyrido[1,2-a][1,4]diazonin]-12′-yl)oxy)methyl ((S)-3-methyl-2-(phosphonooxy)butyl) carbonate] | – | 39.7 | –
